Laboratory results reported in patent US20180228158A1, “COMPOSITIONS AND METHODS FOR CONTROL OF DISEASE” (Monsanto Technology LLC, priority 2017, published 2018).

Key:
[1] = system: soybean cyst nematode (SCN); experiment: Field trial: counts of soybean cyst nematode (SCN) eggs; assay type: in vivo; conditions: for Fall Eggs/100 cc: SCN egg count in fall; for Spring Eggs/100 cc: SCN egg count in spring; for Mean RF: SCN eggs
Method: (§1) A field trial was conducted to determine the efficacy of compounds as described herein against soybean sudden death syndrome. Soybean seeds were planted at the start of the spring growing season in a location where fungi of the genus Fusarium were endemic. Nothing special was done to encourage growth of the fungus or development of the SDS disease.
(§2) Compounds listed in Table 1 below were used to treat soybean seeds prior to planting.
(§3) Seeds treated with oxamyl, at a rate of 1 mg per seed, and non-treated seeds (NT) were included as controls.
(§4) Other typical agronomic data, including counts of soybean cyst nematode (SCN) eggs, were also collected throughout the trial. The percentage of affected plants and the observed SDS disease severity are graphically depicted in FIGS. 1 and 2, respectively.

[2] = system: soybean sudden death syndrome (fungi of the genus Fusarium); experiment: Field trial against soybean sudden death syndrome (seed treatment); assay type: in vivo, Fusarium virguliforme; design: key to SDS incidence: % of affected plants; SDS severity: scale not given here; conditions: for SDS severity: average severity of symptoms in the plots at harvest time; for SDS incidence: percentage of affected plants at harvest time in the fall
Method: as §1, §2, §3, §4

[3] = soybean seed treatment 0.5 mg/seed
[4] = soybean seed treatment 1 mg/seed

## c1ccc(-c2noc(-c3cccs3)n2)cc1 [DC1822]
[1]; [3]
  Fall Eggs/100 cc: 2600 eggs/100 cc
  Spring Eggs/100 cc: 1175 eggs/100 cc
  Mean RF: 3.875
[1]; [4]
  Fall Eggs/100 cc: 2100 eggs/100 cc
  Spring Eggs/100 cc: 700 eggs/100 cc
  Mean RF: 6.425
[2]; [3]
  SDS severity: 2
  SDS incidence: 45
[2]; [4]
  SDS severity: 1.5
  SDS incidence: 28.75

## Clc1ccc(-c2noc(-c3ccco3)n2)cc1 [DC5523]
[1]; [3]
  Fall Eggs/100 cc: 1925 eggs/100 cc
  Spring Eggs/100 cc: 675 eggs/100 cc
  Mean RF: 5.35
[1]; [4]
  Fall Eggs/100 cc: 1725 eggs/100 cc
  Spring Eggs/100 cc: 800 eggs/100 cc
  Mean RF: 4.325
[2]; [3]
  SDS severity: 2
  SDS incidence: 47.5
[2]; [4]
  SDS severity: 2
  SDS incidence: 26.25

## Cc1cc(Cl)ccc1-c1noc(-c2ccco2)n1 [DC5823]
[1]; [3]
  Fall Eggs/100 cc: 3325 eggs/100 cc
  Spring Eggs/100 cc: 1075 eggs/100 cc
  Mean RF: 3.35
[1]; [4]
  Fall Eggs/100 cc: 1100 eggs/100 cc
  Spring Eggs/100 cc: 1450 eggs/100 cc
  Mean RF: 1.625
[2]; [3]
  SDS severity: 2.25
  SDS incidence: 55
[2]; [4]
  SDS severity: 2.5
  SDS incidence: 46.25

## CNC(=O)O/N=C(\SC)C(=O)N(C)C [Oxamyl, oxamyl, reference compound]
[1]; [4]
  Fall Eggs/100 cc: 3075 eggs/100 cc
  Spring Eggs/100 cc: 1050 eggs/100 cc
  Mean RF: 6.65
[2]; [4]
  SDS severity: 1.5
  SDS incidence: 32.5
